Measured values reported in patent US6525001B1, “Substituted pyrimidine and pyridine herbicides” (Mid-American Commercialization Corporation, priority 1997, dated 2003).

Key:
Format in all cases: in vivo
[1] = test system: barnyardgrass (Echinochloa crus-galli); assay: Test E pre-/postemergence/post directed; set-up: key: 0 is no injury; 100 is complete control; settings: PREEMERGENCE
Method in brief: (§1)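 Three application modes in greenhouse pots: preemergence soil spray, postemergence foliar spray at two to four leaves, and post-directed spray to soil and plant base. Ratings of 0–100 injury, assigned visually against untreated controls 13 to 21 days later.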

[2] = test system: Italian ryegrass (Lolium multiflorum); assay: Test D; set-up: key: 0 is no effect; 10 is complete control; settings: PREEMERGENCE, Rate 62 g/ha
[3] = test system: pitted morningglory (Ipomoea lacunosa); assay: Test E pre-/postemergence/post directed; set-up: key: 0 is no injury; 100 is complete control; settings: PREEMERGENCE
Method in brief: as §1

[4] = test system: bermudagrass (Cynodon dactylon); assay: Test E pre-/postemergence/post directed; set-up: key: 0 is no injury; 100 is complete control; settings: POSTEMERGENCE
Method in brief: as §1

[5] = test system: common ragweed (Ambrosia elatior); assay: Test E pre-/postemergence/post directed; set-up: key: 0 is no injury; 100 is complete control; settings: PREEMERGENCE, Rate 32 g/ha
Method in brief: as §1

Cc1cnc(-c2ccc(C(F)(F)F)cc2)nc1Cc1cccc(OC(F)(F)F)c1 [Compound 15]
Plant response rating, Barnyardgrass ([1]; Rate 32 g/ha): 0
Plant response rating, Barnyardgrass ([1]; Rate 64 g/ha): 0

CCc1cnc(-c2ccc(C(F)(F)F)cc2)nc1Cc1cccc(C(F)(F)F)c1 [Compound 22]
Plant response rating, I. Ryegrass [2]: 0

COc1cnc(-c2ccc(C(F)(F)F)cc2)nc1Cc1cccc(C(F)(F)F)c1 [Compound 23]
Plant response rating, P. morninglory ([3]; Rate 32 g/ha): 0
Plant response rating, P. morninglory ([3]; Rate 64 g/ha): 0

Cc1cnc(-n2cnc(C(F)(F)F)c2)nc1Cc1cccc(C(F)(F)F)c1 [Compound 44]
Plant response rating, Bermudagrass ([4]; Rate 125 g/ha): 0
Plant response rating, Bermudagrass ([4]; Rate 250 g/ha): 0

CCc1cnc(-n2ccc(C(F)(F)F)n2)nc1Cc1cccc(C(F)(F)F)c1 [Compound 46]
Plant response rating, Com. ragweed [5]: 0
